Data on 36 compounds can be found in patent US20230157996A1, “SMALL-MOLECULE INHIBITOR TARGETING EB VIRUS NUCLEAR ANTIGEN PROTEIN, PREPARATION METHOD AND USE THEREOF” (priority 2020, published 2023).

The test system of the first test is C666-1 cells. In words: C666-1 cell viability single concentration (50 μM) inhibition rate (Resazurin). In kind it is cell-based. As to conditions: 50 μM compound, 72 hours, C666-1 cells. How it is done:
In order to assess the effect of the EBNA1 inhibitor at the cellular level, the cell proliferation inhibition rate was tested, and the inhibition rate of inhibitor at a specific concentration on the proliferation of Epstein-Barr virus positive cell line C666-1 was detected.
In the test, 100 μL C666-1 cells were inoculated in a transparent 96-well plate, and each well contained 5×10^3 cells. After the cells were cultured in an incubator with 5% carbon dioxide at 37° C. for 24 hours, 10 μL compound at a concentration of 500 μmol/L was added into the cells, so that the final concentration of the compound was 50 μmol/L. Two replicate wells were set for each compound, the wells treated with DMSO were set as control wells (Ctrl), and the wells with cell culture medium only were set as blank wells (blank), and they were treated in the incubator with carbon dioxide at 37° C. for 72 hours. The cell viability was assessed using a redox indicator Resazurin. Specifically, 10 μL Resazurin at a concentration of 600 umol/L was added into each well, and incubated at 37° C. for 3 hours, and a Tecan microplate reader was used to detect the fluorescence signal at an excitation wavelength of 560 nm and an emission wavelength of 590 nm. The formula inh %=1−(F−Fblank)/(FCtrl−Fblank)×100% (where, F is the fluorescence intensity of the compound-added wells, FCtrl and Fblank are the readings of the control wells and blank wells, respectively) was used to calculate the inhibition rate of the compound on the proliferation of C666-1 cells, so as to assess the activity of the compound on Epstein-Barr virus positive cells.
For orientation: Alamar Blue is a resazurin reagent that responds to reducing activity.
Regarding `COC(=O)c1cccc(N2CC(Oc3ccccc3)C2)c1-n1cccc1` [Example 101, Methyl 3-(3-phenoxyazetidin-1-yl)-2-(1H-pyrrol-1-yl)benzoate], the “C666-1 cell viability single concentration (50 μM) inhibition rate, Ratio* (Inh %)” value is reported as “+++ (30%-50% +++)”.

The test is the same for the next values; noted with them: Homo sapiens, C6661, 72 h, 50 μM compound, 72 hours, C666-1 cells; read-out: C666-1 cell viability single concentration (50 μM) inhibition rate, Ratio* (Inh %).
With `CCCCCCCC(=O)OCc1ccc(OC2CN(c3cccc(C(=O)OC)c3-n3cccc3)C2)cc1` [Compound 75, Methyl 3-(3-(4-((octanoyloxy)methyl)phenoxy)azetidin-1-yl)-2-(1H-pyrrol-1-yl)benzoate], the inhibition at 50 µM lay in the range of 10 to 30%.

Regarding `COC(=O)c1cccc(N2CC(Oc3ccc(CNC(C)=O)cc3)C2)c1-n1cccc1` [Compound 76, Methyl 3-(3-(4-(acetylaminomethyl)phenoxy)azetidin-1-yl)-2-(1H-pyrrol-1-yl)benzoate], the inhibition at 50 µM was in the range of 10 to 30%.

Regarding `CC(=O)NCc1ccc(OC2CN(c3cccc(C(=O)O)c3-n3cccc3)C2)cc1` [Compound 77, 3-(3-(4-(acetylaminomethyl)phenoxy)azetidin-1-yl)-2-(1H-pyrrol-1-yl)benzoic acid], the inhibition at 50 µM was < 10%.

In the case of `COC(=O)c1cccc(N2CC(Oc3ccc(CNS(=O)(=O)C4CC4)cc3)C2)c1-n1cccc1` [Compound 78, Methyl 3-(3-(4-(cyclopropylsulfonamidomethyl)phenoxy)azetidin-1-yl)-2-(1H-pyrrol-1-yl)benzoate], the inhibition at 50 µM was > 50%.

In the case of `COC(=O)c1cccc(N2CC(Oc3cccc(OC)c3)C2)c1-n1cccc1` [Compound 79, Methyl 3-(3-(3-methoxyphenoxy)azetidin-1-yl)-2-(1H-pyrrol-1-yl)benzoate], the inhibition at 50 µM was 10 to 30%.

Take `COc1cccc(OC2CN(c3cccc(C(=O)O)c3-n3cccc3)C2)c1` [Compound 80, 3-(3-(3-methoxyphenoxy)azetidin-1-yl)-2-(1H-pyrrol-1-yl)benzoic acid]: the inhibition at 50 µM is < 10%.

As to `COC(=O)c1cccc(N2CC(Oc3ccc(C(F)(F)F)cc3)C2)c1-n1cccc1` [Compound 81, Methyl 2-(1H-pyrrol-1-yl)-3-(3-(4-(trifluoromethyl)phenoxy)azetidin-1-yl)benzoate], the inhibition at 50 µM lay in the range of 10 to 30%.

Take `O=C(O)c1cccc(N2CC(Oc3ccc(C(F)(F)F)cc3)C2)c1-n1cccc1` [Compound 82, 2-(1H-pyrrol-1-yl)-3-(3-(4-(trifluoromethyl)phenoxy)azetidin 1-yl)benzoic acid]: the inhibition at 50 µM is < 10%.

For the compound `COC(=O)c1cccc(N2CC(Oc3ccc(OC(F)(F)F)cc3)C2)c1-n1cccc1` [Compound 83, Methyl 2-(1H-pyrrol-1-yl)-3-(3-(4-(trifluoromethoxy)phenoxy)azetidin-1-yl)benzoate], the inhibition at 50 µM was > 50%.

Turning to `O=C(O)c1cccc(N2CC(Oc3ccc(OC(F)(F)F)cc3)C2)c1-n1cccc1` [Compound 84, 2-(1H-pyrrol-1-yl)-3-(3-(4-(trifluoromethoxy)phenoxy)azetidin-1-yl)benzoic acid], the inhibition at 50 µM is < 10%.

Turning to `COC(=O)c1cccc(N2CC(Oc3ccc(Cl)nc3)C2)c1-n1cccc1` [Compound 85, Methyl 3-(3-((6-chloropyridin-3-yl)oxy)azetidin-1-yl)-2-(1H-pyrrol-1-yl)benzoate], the inhibition at 50 µM was > 50%.

Turning to `O=C(O)c1cccc(N2CC(Oc3ccc(Cl)nc3)C2)c1-n1cccc1` [Compound 86, 3-(3-((6-chloropyridin-3-yl)oxy)azetidin-1-yl)-2-(1H-pyrrol-1-yl)benzoic acid], the inhibition at 50 µM was < 10%.

`COC(=O)c1cccc(N2CC(Oc3ccc(C(C)=O)cc3)C2)c1-n1cccc1` [Compound 87, Methyl 3-(3-(4-acetylphenoxy)azetidin-1-yl)-2-(1H-pyrrol-1-yl)benzoate]: the inhibition at 50 µM is > 50%.

`CC(=O)c1ccc(OC2CN(c3cccc(C(=O)O)c3-n3cccc3)C2)cc1` [Compound 88, 3-(3-(4-acetylphenoxy)azetidin-1-yl)-2-(1H-pyrrol-1-yl)benzoic acid]: the inhibition at 50 µM is < 10%.

As for `COC(=O)c1cccc(N2CC(Oc3ccc(C(C)O)cc3)C2)c1-n1cccc1` (stereo not drawn) [Compound 89, Methyl 3-(3-(4-(1-hydroxyethyl)phenoxy)azetidin-1-yl)-2-(1H-pyrrol-1-yl)benzoate], the inhibition at 50 µM is > 50%.

For the compound `CC(O)c1ccc(OC2CN(c3cccc(C(=O)O)c3-n3cccc3)C2)cc1` (stereo not drawn) [Compound 90, 3-(3-(4-(1-hydroxyethyl)phenoxy)azetidin-1-yl)-2-(1H-pyrrol-1-yl)benzoic acid], the inhibition at 50 µM was < 10%.

On to `COC(=O)c1cccc(N2CC(Oc3cc(Cl)nc(Cl)c3)C2)c1-n1cccc1` [Compound 91, Methyl 3-(3-((2,6-dichloropyridin-4-yl)oxy)azetidin-1-yl)-2-(1H-pyrrol-1-yl)benzoate], for which the inhibition at 50 µM is < 10%.

On to `O=C(O)c1cccc(N2CC(Oc3cc(Cl)nc(Cl)c3)C2)c1-n1cccc1` [Compound 92, 3-(3-((2,6-dichloropyridin-4-yl)oxy)azetidin-1-yl)-2-(1H-pyrrol-1-yl)benzoic acid], for which the inhibition at 50 µM is < 10%.

Take `COC(=O)c1cccc(N2CC(Oc3ccc(C#N)cc3)C2)c1-n1cccc1` [Compound 93, Methyl 3-(3-(4-cyanophenoxy)azetidin-1-yl)-2-(1H-pyrrol-1-yl)benzoate]: the inhibition at 50 µM is 30 to 50%.

Take `N#Cc1ccc(OC2CN(c3cccc(C(=O)O)c3-n3cccc3)C2)cc1` [Compound 94, 3-(3-(4-cyanophenoxy)azetidin-1-yl)-2-(1H-pyrrol-1-yl)benzoic acid]: the inhibition at 50 µM was < 10%.

Take `COC(=O)c1cccc(N2CC(Oc3ccc(Cl)cc3)C2)c1-n1cccc1` [Compound 95, Methyl 3-(3-(4-chlorophenoxy)azetidin-1-yl)-2-(1H-pyrrol-1-yl)benzoate]: the inhibition at 50 µM is < 10%.

As to `O=C(O)c1cccc(N2CC(Oc3ccc(Cl)cc3)C2)c1-n1cccc1` [Compound 96, 3-(3-(4-chlorophenoxy)azetidin-1-yl)-2-(1H-pyrrol-1-yl)benzoic acid], the inhibition at 50 µM was < 10%.

For the compound `COC(=O)c1cccc(N2CC(Oc3ccc(N(C)C)cc3)C2)c1-n1cccc1` [Example 97, Methyl 3-(3-(4-(dimethylamino)phenoxy)azetidin-1-yl)-2-(1H-pyrrol-1-yl)benzoate], the inhibition at 50 µM was in the range of 10 to 30%.

For the compound `CN(C)c1ccc(OC2CN(c3cccc(C(=O)O)c3-n3cccc3)C2)cc1` [Example 98, 3-(3-(4-(dimethylamino)phenoxy)azetidin-1-yl)-2-(1H-pyrrol-1-yl)benzoic acid], the inhibition at 50 µM was 10 to 30%.

Take `CCOc1ccc(OC2CN(c3cccc(C(=O)OC)c3-n3cccc3)C2)cc1` [Example 99, Methyl 3-(3-(4-ethoxyphenoxy)azetidin-1-yl)-2-(1H-pyrrol-1-yl)benzoate]: the inhibition at 50 µM was < 10%.

For `CCOc1ccc(OC2CN(c3cccc(C(=O)O)c3-n3cccc3)C2)cc1` [Example 100, 3-(3-(4-ethoxyphenoxy)azetidin-1-yl)-2-(1H-pyrrol-1-yl)benzoic acid], the inhibition at 50 µM is < 10%.

Take `O=C(O)c1cccc(N2CC(Oc3ccccc3)C2)c1-n1cccc1` [Example 102, 3-(3-phenoxyazetidin-1-yl)-2-(1H-pyrrol-1-yl)benzoic acid]: the inhibition at 50 µM is < 10%.

With `COC(=O)c1cccc(N2CC(Oc3ccc4cc[nH]c4c3)C2)c1-n1cccc1` [Example 103, Methyl 3-(3-((1H-indol-6-yl)oxy)azetidin-1-yl)-2-(1H-pyrrol-1-yl)benzoate], the inhibition at 50 µM lay within 10 to 30%.

In the case of `O=C(O)c1cccc(N2CC(Oc3ccc4cc[nH]c4c3)C2)c1-n1cccc1` [Example 104, 3-(3-((1H-indol-6-yl)oxy)azetidin-1-yl)-2-(1H-pyrrol-1-yl)benzoic acid], the inhibition at 50 µM was < 10%.

As for `CCCOc1ccc(OC2CN(c3cccc(C(=O)OC)c3-n3cccc3)C2)cc1` [Example 105, Methyl 3-(3-(4-propoxyphenoxy)azetidin-1-yl)-2-(1H-pyrrol-1-yl)benzoate], the inhibition at 50 µM was < 10%.

Consider `CCCOc1ccc(OC2CN(c3cccc(C(=O)O)c3-n3cccc3)C2)cc1` [Example 106, 3-(3-(4-propoxyphenoxy)azetidin-1-yl)-2-(1H-pyrrol-1-yl)benzoic acid], for which the inhibition at 50 µM is < 10%.

As for `CCCCOc1ccc(OC2CN(c3cccc(C(=O)OC)c3-n3cccc3)C2)cc1` [Example 107, Methyl 3-(3-(4-butoxyphenoxy)azetidin-1-yl)-2-(1H-pyrrol-1-yl)benzoate], the inhibition at 50 µM was < 10%.

`CCCCOc1ccc(OC2CN(c3cccc(C(=O)O)c3-n3cccc3)C2)cc1` [Example 108, 3-(3-(4-butoxyphenoxy)azetidin-1-yl)-2-(1H-pyrrol-1-yl)benzoic acid]: the inhibition at 50 µM was < 10%.

On to `COC(=O)c1cccc(N2CC(Oc3ccc(OC(C)C)cc3)C2)c1-n1cccc1` [Example 109, Methyl 3-(3-(4-isopropoxyphenoxy)azetidin-1-yl)-2-(1H-pyrrol-1-yl)benzoate], for which the inhibition at 50 µM was < 10%.

As to `CC(C)Oc1ccc(OC2CN(c3cccc(C(=O)O)c3-n3cccc3)C2)cc1` [Example 110, 3-(3-(4-isopropoxyphenoxy)azetidin-1-yl)-2-(1H-pyrrol-1-yl)benzoic acid], the inhibition at 50 µM was < 10%.
